From patent publication US8952024B2, “Herbicidal pyrimidone derivatives” (E I du Pont de Nemours and Company, priority 2009, dated 2015)

Assays:
Type in all cases: in vivo
[1] = test system: goosegrass (Eleusine indica); assay: Test B pre-/postemergence plant response; details: Preemergence, 62 g ai/ha; scale 0 to 100 (0 no effect, 100 complete control)
[2] = test system: winter barley (Hordeum vulgare); assay: Test B postemergence plant response; details: Postemergence; for Barley plant response rating: 250 g ai/ha, scale 0 to 100
Procedure, shortened: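 Plants at the 1- to 4-leaf stage (2 to 18 cm tall), grown in pots of peat moss/vermiculite medium with wetting agent and starter nutrients, received postemergence applications of test chemicals. After 13 to 15 days in a greenhouse, injury was rated visually against untreated controls on a 0 (no effect) to 100 (complete control) scale.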

[3] = test system: nightshade (eastern black nightshade, Solanum ptycanthum); assay: Test B pre-/postemergence plant response; details: Preemergence; for Nightshade plant response rating: 125 g ai/ha
Procedure, shortened: (§1)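 Plants treated either at seeding (loam/sand soil) or postemergence at 2 to 18 cm height, using a surfactant-containing non-phytotoxic solvent formulation. Evaluation was visual after 13 to 15 days, 0 to 100 scale relative to controls.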

[4] = test system: galium (catchweed bedstraw, Galium aparine); assay: Test B pre-/postemergence plant response; details: Preemergence; for Galium plant response rating: 125 g ai/ha
Procedure, shortened: as §1

[5] = test system: sunflower (common oilseed sunflower, Helianthus annuus); assay: Test B pre-/postemergence plant response; details: Preemergence; for Sunflower plant response rating: 125 g ai/ha
Procedure, shortened: as §1

[6] = 31 g ai/ha, scale 0 to 100 (0 no effect, 100 complete control)
[7] = 62 g ai/ha, scale 0 (no effect) to 100 (complete control), 13 to 15 days
[8] = 62 g ai/ha, scale 0 to 100 (0 no effect, 100 complete control)
[9] = 125 g ai/ha, visual rating after 13 to 15 days, scale 0 (no effect) to 100 (complete control)

Compound | Plant response rating, Goosegrass [1] | Plant response rating, Barley [2, 6] | Plant response rating, Barley [2, 7] | Plant response rating, Barley ([2]; 125 g ai/ha, scale 0 to 100 (0 no effect, 100 complete control), 13 to 15 days) | Barley plant response rating [2] | Plant response rating, Nightshade ([3]; 250 g ai/ha, 0 to 100 scale) | Plant response rating, Nightshade [3, 6] | Plant response rating, Nightshade [3, 8] | Nightshade plant response rating ([3]; 0 to 100 scale) | Plant response rating, Galium ([4]; 250 g ai/ha, 0 to 100 scale) | Plant response rating, Galium [4, 6] | Plant response rating, Galium [4, 8] | Galium plant response rating ([4]; 0 to 100 scale) | Plant response rating, Sunflower ([5]; 250 g ai/ha, 0 to 100 scale) | Plant response rating, Sunflower [5, 6] | Plant response rating, Sunflower [5, 8] | Sunflower plant response rating ([5]; 0 to 100 scale) | Plant response rating, Barley [2, 9]
Cc1ccccc1-n1c(-c2ccccc2)ncc(C(=O)C2=C(O)CCCC2=O)c1=O [Compound 12] | 95 | 0 | 0 | 0 | 0 | 100 | 100 | 100 | 100 | 95 | 0 | 50 | 90 | 100 | 95 | 98 | 98 | 
Cc1cccc(Cl)c1-n1c(-c2ccccc2)ncc(C(=O)C2=C(O)CCCC2=O)c1=O [Compound 46] | 95 | 0 | 0 |  | 0 | 98 | 95 | 95 | 98 | 70 | 0 | 0 | 0 | 60 | 0 |  | 0 | 0
O=C1CCCC(O)=C1C(=O)c1cnc(-c2ccccc2)n(-c2cccc(Br)c2)c1=O [Compound 38] | 100 | 0 | 0 |  | 35 | 100 | 90 | 95 | 98 | 85 | 0 | 40 | 85 | 75 | 0 |  | 25 | 0
Cc1c(Cl)cccc1-n1c(-c2ccccc2)ncc(C(=O)C2=C(O)CCCC2=O)c1=O [Compound 40] | 98 | 0 | 0 |  | 10 | 100 | 65 | 98 | 98 | 90 | 50 | 70 | 85 | 80 | 20 |  | 75 | 10
Cc1ccc(F)cc1-n1c(-c2ccccc2)ncc(C(=O)C2=C(O)CCCC2=O)c1=O [Compound 44] | 98 | 0 | 0 |  | 15 | 100 | 95 | 98 | 100 | 98 | 0 | 65 | 65 | 80 | 10 |  | 75 | 5
Cc1ccccc1-n1c(-c2cccc(Cl)c2)ncc(C(=O)C2=C(O)CCCC2=O)c1=O [Compound 36] | 90 | 5 | 10 |  |  | 98 | 80 | 95 | 95 | 95 | 10 | 80 | 80 | 85 | 0 |  | 55 | 20
